Data published in ChEMBL document CHEMBL5380820, “Design and Discovery of Novel Cyclic Peptides as EDPs-EBP Interaction Inhibitors for the Treatment of Liver Fibrosis” (J Med Chem, 2023).
Activity calls are given as the source filed them. No cut-off for these calls is given here. Where a SMILES comes first, the peptide text is derived from it. Bridges are numbered along the chain shown (N, C = ends). [ ]: non-standard residue; d: D form. Aib = CC(C)(N)C(=O)O

How the values were obtained:
LX-2 [1] = assay: Antifibrotic activity against TGF-beta induced human LX2 cells assessed as reduction of collagen I expression measured at 10 uM for 24 hrs by measuring fluorescence intensity relative to control; type: functional; design: scale not given: the % may be the effect or the level left
LX-2 [2] = assay: Antifibrotic activity against TGF-beta induced human LX2 cells assessed as inhibition of neuraminidase activity using NA fluorogenic substrate by measuring fluorescence intensity relative to control; type: functional
LX-2 [3] = assay: Antifibrotic activity against TGF-beta induced human LX2 cells assessed as inhibition of alpha-SMA expression by measuring fluorescence intensity relative to control; type: functional
LX2 [4] = assay: Inhibition of elastin receptor complex elastin binding protein subunit in human LX2 cells assessed as inhibition of EDP induced ERK phosphorylation treated at 10 uM for 24 hrs by Western blot analysis; type: cell-based
LX-2 [5] = assay: Antifibrotic activity against TGF-beta induced human LX2 cells assessed as inhibition of collagen I expression by measuring fluorescence intensity relative to control; type: functional
LX-2 [6] = assay: Antifibrotic activity against TGF-beta induced human LX2 cells assessed as reduction of alpha-SMA expression measured at 10 uM for 24 hrs by measuring fluorescence intensity relative to control; type: functional; design: scale not given: the % may be the effect or the level left
LX2 [7] = assay: Inhibition of elastin receptor complex elastin binding protein subunit in human LX2 cells assessed as inhibition of EDP induced PI3K phosphorylation treated at 10 uM for 24 hrs by Western blot analysis; type: cell-based
LX2 [8] = assay: Inhibition of elastin receptor complex elastin binding protein subunit in human LX2 cells assessed as inhibition of EDP induced AMPK phosphorylation treated at 10 uM for 24 hrs by Western blot analysis; type: cell-based
LX-2 [9] = assay: Antifibrotic activity against TGF-beta induced human LX2 cells assessed as reduction of alpha-SMA expression measured at 10 uM for 24 hrs by measuring fluorescence intensity; type: functional, cell-based
LX-2 [10] = assay: Antifibrotic activity against TGF-beta induced human LX2 cells assessed as reduction of collagen I expression measured at 10 uM for 24 hrs by measuring fluorescence intensity; type: functional, cell-based
LX-2 [11] = assay: Antifibrotic activity against TGF-beta induced human LX2 cells assessed as inhibition of neuraminidase activity using NA fluorogenic substrate measured at 10 uM for 24 hrs by measuring fluorescence intensity; type: functional, cell-based

## CC(C)C[C@H](NC(=O)[C@@H]1CCCN1C(=O)[C@H](CO)NC(=O)[C@H](C)NC(=O)[C@H](CCC(=O)O)NC(=O)[C@@H]1CC(=O)N[C@@H](C(C)C)C(=O)N[C@@H](C(C)C)C(=O)NCC(=O)N[C@@H](CO)C(=O)N2CCC[C@H]2C(=O)N[C@@H](CO)C(=O)N[C@@H](C)C(=O)N[C@@H](CCC(N)=O)C(=O)N1)C(=O)O (VVGSPSAQDEASPL-OH; lactam N-9)
LX-2 [1]
  Activity: ~50%
LX-2 [2]
  inhibition (INH): 62.2%
LX-2 [3]
  inhibition (INH): 39%
LX2 [4]
  inhibition: Active
LX-2 [5]
  inhibition (INH): 36.1%
LX-2 [6]
  Activity: ~50%
LX2 [7]
  inhibition: Active
LX2 [8]
  inhibition: Active

## CC(C)C[C@@H]1NC(=O)[C@@H]2CCCN2C(=O)[C@H](CO)NC(=O)[C@H](C)NC(=O)[C@H](CCC(=O)O)NC(=O)[C@H](CC(=O)O)NC(=O)[C@H](CCC(N)=O)NC(=O)[C@H](C)NC(=O)[C@H](CO)NC(=O)[C@@H]2CCCN2C(=O)[C@H](CO)NC(=O)CNC(=O)[C@H](C)NC(=O)[C@H](C(C)C)NC1=O (cyclo(AGSPSAQDEASPLV))
LX-2 [2]
  inhibition (INH): 44%
LX-2 [3]
  inhibition (INH): 11.5%
LX-2 [5]
  inhibition (INH): 0.9%

## CC(C)C[C@@H]1NC(=O)[C@H](C(C)C)NC(=O)[C@H](C)NC(=O)[C@@H]2CCCN2C(=O)[C@H](CO)NC(=O)[C@H](C)NC(=O)[C@H](CCC(=O)O)NC(=O)[C@H](CC(=O)O)NC(=O)[C@H](CCC(N)=O)NC(=O)[C@H](C)NC(=O)[C@H](CO)NC(=O)[C@@H]2CCCN2C(=O)[C@H](CO)NC(=O)CNC1=O (cyclo(AQDEASPAVLGSPS))
LX-2 [2]
  inhibition (INH): 42.2%
LX-2 [3]
  inhibition (INH): 20.7%
LX-2 [5]
  inhibition (INH): 1.6%

## CC(C)[C@@H]1NC(=O)CNC(=O)[C@@H]2CCCN2C(=O)[C@H](CO)NC(=O)[C@H](C)NC(=O)[C@H](CCC(=O)O)NC(=O)[C@H](CC(=O)O)NC(=O)[C@H](CCC(N)=O)NC(=O)[C@H](C)NC(=O)[C@H](CS)NC(=O)[C@@H]2CCCN2C(=O)[C@H](CO)NC(=O)CNC(=O)[C@H](C(C)C)NC1=O (cyclo(AQDEASPGVVGSPC))
LX-2 [2]
  inhibition (INH): 36.4%
LX-2 [3]
  inhibition (INH): 5.3%
LX-2 [5]
  inhibition (INH): 12.3%

## CC(C)[C@@H]1NC(=O)CNC(=O)[C@@H]2CCCN2C(=O)[C@H](CO)NC(=O)[C@H](C)NC(=O)[C@H](CCC(=O)O)NC(=O)[C@H](CC(=O)O)NC(=O)[C@H](CCC(N)=O)NC(=O)[C@H](C)NC(=O)[C@H](CC(=O)O)NC(=O)[C@@H]2CCCN2C(=O)[C@H](CO)NC(=O)CNC(=O)[C@H](C(C)C)NC1=O (cyclo(AQDEASPGVVGSPD))
LX-2 [2]
  inhibition (INH): 49.5%
LX-2 [3]
  inhibition (INH): 17.6%
LX-2 [5]
  inhibition (INH): 2.2%

## CC(C)[C@@H]1NC(=O)CNC(=O)[C@@H]2CCCN2C(=O)[C@H](CO)NC(=O)[C@H](C)NC(=O)[C@H](CCC(=O)O)NC(=O)[C@H](CC(=O)O)NC(=O)[C@H](CCC(N)=O)NC(=O)[C@H](C)NC(=O)CNC(=O)[C@@H]2CCCN2C(=O)[C@H](CO)NC(=O)CNC(=O)[C@H](C(C)C)NC1=O (cyclo(AQDEASPGVVGSPG))
LX-2 [2]
  inhibition (INH): 2.6%
LX-2 [3]
  inhibition (INH): 5.3%
LX-2 [5]
  inhibition (INH): 8.5%

## CC(C)C[C@@H]1NC(=O)[C@H](C(C)C)NC(=O)[C@H](CC(C)C)NC(=O)[C@@H]2CCCN2C(=O)[C@H](CO)NC(=O)[C@H](C)NC(=O)[C@H](CCC(=O)O)NC(=O)[C@H](CC(=O)O)NC(=O)[C@H](CCC(N)=O)NC(=O)[C@H](C)NC(=O)[C@H](CO)NC(=O)[C@@H]2CCCN2C(=O)[C@H](CO)NC(=O)CNC1=O (cyclo(AQDEASPLVLGSPS))
LX-2 [2]
  inhibition (INH): 27.4%
LX-2 [3]
  inhibition: inactive
LX-2 [5]
  inhibition: inactive

## CC(C)C[C@@H]1NC(=O)[C@@H]2CCCN2C(=O)[C@H](CO)NC(=O)[C@H](C)NC(=O)[C@H](CCC(=O)O)NC(=O)[C@H](CC(=O)O)NC(=O)[C@H](CCC(N)=O)NC(=O)[C@H](C)NC(=O)[C@H](CCCCN)NC(=O)[C@@H]2CCCN2C(=O)[C@H](CO)NC(=O)CNC(=O)[C@H](C(C)C)NC(=O)[C@H](C(C)C)NC1=O (cyclo(AQDEASPLVVGSPK))
LX-2 [2]
  inhibition (INH): 30%
LX-2 [3]
  inhibition (INH): 2.8%
LX-2 [5]
  inhibition (INH): 1.7%

## CC(C)C[C@@H]1NC(=O)[C@@H]2CCCN2C(=O)[C@H](CO)NC(=O)[C@H](C)NC(=O)[C@H](CCC(=O)O)NC(=O)[C@H](CC(=O)O)NC(=O)[C@H](CCC(N)=O)NC(=O)[C@H](C)NC(=O)[C@H]([C@@H](C)O)NC(=O)[C@@H]2CCCN2C(=O)[C@H](CO)NC(=O)CNC(=O)[C@H](C(C)C)NC(=O)[C@H](C(C)C)NC1=O (cyclo(AQDEASPLVVGSPT))
LX-2 [2]
  inhibition (INH): 27%
LX-2 [3]
  inhibition (INH): 9.9%
LX-2 [5]
  inhibition (INH): 13.9%

## CC(C)C[C@@H]1NC(=O)[C@@H]2CCCN2C(=O)[C@H](CO)NC(=O)C(C)(C)NC(=O)[C@H](CCC(=O)O)NC(=O)[C@H](CC(=O)O)NC(=O)[C@H](CCC(N)=O)NC(=O)[C@H](C)NC(=O)[C@H](CO)NC(=O)[C@@H]2CCCN2C(=O)[C@H](CO)NC(=O)CNC(=O)[C@H](C(C)C)NC(=O)[C@H](C(C)C)NC1=O (cyclo(AQDE[Aib]SPLVVGSPS))
LX-2 [2]
  inhibition (INH): 35%
LX-2 [3]
  inhibition (INH): 5.2%
LX-2 [5]
  inhibition: inactive

## CC(C)C[C@@H]1NC(=O)[C@@H]2CCCN2C(=O)[C@H](CO)NC(=O)[C@H](C)NC(=O)[C@H](CCC(=O)O)NC(=O)[C@H](CC(=O)O)NC(=O)[C@H](CCC(N)=O)NC(=O)C(C)(C)NC(=O)[C@H](CO)NC(=O)[C@@H]2CCCN2C(=O)[C@H](CO)NC(=O)CNC(=O)[C@H](C(C)C)NC(=O)[C@H](C(C)C)NC1=O (cyclo(ASPLVVGSPS[Aib]QDE))
LX-2 [1]
  Activity: ~50%
LX-2 [2]
  inhibition (INH): 75%
LX-2 [3]
  inhibition (INH): 24.1%
LX2 [4]
  inhibition: Active
LX-2 [5]
  inhibition (INH): 26.8%
LX-2 [6]
  Activity: ~50%
LX2 [7]
  inhibition: Active
LX2 [8]
  inhibition: Active

## H-AVGSPSAQDEASPL-NH2
LX-2 [2]
  inhibition (INH): 31.2%
LX-2 [3]
  inhibition (INH): 3.9%
LX-2 [5]
  inhibition (INH): 6.2%

## H-VAGSPSAQDEASPL-NH2
LX-2 [2]
  inhibition (INH): 60%
LX-2 [3]
  inhibition (INH): 26.4%
LX-2 [9]
  Activity: Active
LX-2 [5]
  inhibition (INH): 28%
LX-2 [10]
  Activity: Active

## H-VVASPSAQDEASPL-NH2
LX-2 [2]
  inhibition (INH): 26.8%
LX-2 [11]
  Activity: inactive
LX-2 [3]
  inhibition: inactive
LX-2 [9]
  Activity: inactive
LX-2 [5]
  inhibition (INH): 6.9%
LX-2 [10]
  Activity: inactive

## H-VVGSASAQDEASPL-NH2
LX-2 [2]
  inhibition (INH): 24.4%
LX-2 [3]
  inhibition (INH): 3.6%
LX-2 [9]
  Activity: Active
LX-2 [5]
  inhibition (INH): 7.5%

## H-VVGSPAAQDEASPL-NH2
LX-2 [2]
  inhibition (INH): 55.3%
LX-2 [3]
  inhibition (INH): 33.4%
LX-2 [5]
  inhibition (INH): 34.6%
LX-2 [10]
  Activity: Active

## H-VVGSPSAQAEASPL-NH2
LX-2 [2]
  inhibition (INH): 33.4%
LX-2 [3]
  inhibition (INH): 7.1%
LX-2 [9]
  Activity: Active
LX-2 [5]
  inhibition (INH): 5.2%

## H-VVGSPSAQDAASPL-NH2
LX-2 [2]
  inhibition (INH): 20.7%
LX-2 [3]
  inhibition: inactive
LX-2 [9]
  Activity: Active
LX-2 [5]
  inhibition (INH): 17.6%

## H-VVGSPSAQDEAAPL-NH2
LX-2 [2]
  inhibition (INH): 28.6%
LX-2 [3]
  inhibition (INH): 11.3%
LX-2 [9]
  Activity: Active
LX-2 [5]
  inhibition (INH): 21.7%

## H-VVGSPSAQDEASPA-NH2
LX-2 [2]
  inhibition (INH): 54.7%
LX-2 [3]
  inhibition (INH): 38.7%
LX-2 [9]
  Activity: Active
LX-2 [5]
  inhibition (INH): 34.6%
LX-2 [10]
  Activity: Active
